Experimental data: ChEMBL document CHEMBL6115007, “Synthesis and in vitro and in vivo evaluation of novel bivalent quinolines as antitumor agents via targeting autophagy in cervical cancer” (Eur J Med Chem, 2025)
The source made the active and inactive calls. The calls are words filed in the database; no cut-off is given here.

Columns and labels:
[1] = tested on: HeLa; assay: Effect on ferroptosis pathway related gene expression in human HeLa cells at 1.2 uM incubated for 24 hrs by GSVA enrichment analysis; format: functional, cell-based
[2] = tested on: Ca-Ski; assay: Induction of autophagy in human Ca Ski cells transfected with mRFP-GFP-LC3 plasmid assessed as appearance of RFP puncta clusters as aggregates in cytoplasm at 0.3 to 0.6 uM incubated for 24 hrs by DAPI staining based fluorescence confocal microscopic analysis; format: functional, cell-based; conditions: dose 0.3-0.6 µM
[3] = tested on: HeLa; assay: Inhibition of colony formation in ATG5 deficient human HeLa cells at 0.15 to 0.6 uM incubated for 24 hrs by crystal violet staining based analysis; format: functional, cell-based; conditions: dose 0.15-0.6 µM
[4] = tested on: Ca-Ski; assay: Induction of autophagy in ATG7 deficient human Ca Ski cells assessed as increase in LC3-II expression at 0.5 to 1 uM incubated for 24 hrs by Western blot analysis; format: functional, cell-based; conditions: dose 0.5-1 µM
[5] = tested on: Ca-Ski; assay: Induction of autophagy in human Ca Ski cells assessed as increase in LC3-II accumulation at 0.5 uM incubated for 3 to 48 hrs by Western blot analysis; format: functional, cell-based; conditions: time 3-48 hrs
[6] = tested on: HeLa; assay: Induction of autophagy pathway in human HeLa cells at 1.2 uM incubated for 24 hrs by GSEA analysis; format: functional, cell-based
[7] = tested on: HeLa; assay: Antitumor activity against human HeLa cells xenografted in female BALB/c mouse assessed as reduction in tumor weight at 4 mg/kg administered every four days and measured after 26 days relative to control; format: functional; design: scale not given: the % may be the effect or the level left; conditions: time 26 day
[8] = tested on: SiHa; assay: Inhibition of colony formation in human SiHa cells assessed as reduction in colony forming unit count at 0.1 to 0.4 uM incubated for 24 hrs by crystal violet staining based analysis; format: functional, cell-based; conditions: dose 0.1-0.4 µM
[9] = tested on: C-33-A; assay: Antiproliferative activity against human C-33-A cells assessed as inhibition of cell viability incubated for 24 hrs by CCK8 assay; format: functional, cell-based
[10] = tested on: Ca-Ski; assay: Inhibition of colony formation in ATG5 deficient human Ca Ski cells at 0.1 to 0.4 uM incubated for 24 hrs by crystal violet staining based analysis; format: functional, cell-based; conditions: dose 0.1-0.4 µM
[11] = tested on: Ca-Ski; assay: Antiproliferative activity against p53 deficient human Ca Ski cells assessed as inhibition of cell viability incubated for 24 hrs by CCK8 assay; format: functional, cell-based
[12] = tested on: HeLa; assay: Induction of autophagy in human HeLa cells assessed as increase in ATG5 protein level at 0.6 to 1.2 uM incubated for 24 hrs by Western blot analysis; format: functional, cell-based; conditions: dose 0.6-1.2 µM
[13] = tested on: HeLa; assay: Effect on cleaved PARP expression level in p53 deficient human HeLa cells at 0.6 to 1.2 uM incubated for 24 hrs by Western blot analysis; format: functional, cell-based; conditions: dose 0.6-1.2 µM
[14] = tested on: HeLa; assay: Effect on GPX4 protein expression level in human HeLa cells at 0.6 uM incubated for 24 hrs by Western blot analysis; format: functional, cell-based
[15] = tested on: HeLa; assay: Effect on PARP expression level in p53 deficient human HeLa cells at 0.6 to 1.2 uM incubated for 24 hrs by Western blot analysis; format: functional, cell-based; conditions: dose 0.6-1.2 µM
[16] = tested on: HeLa; assay: Induction of autophagy in ATG7 deficient human HeLa cells assessed as increase in LC3-II expression at 0.6 to 1.2 uM incubated for 24 hrs by Western blot analysis; format: functional, cell-based; conditions: dose 0.6-1.2 µM
[17] = tested on: HeLa; assay: Induction of apoptosis in human HeLa cells assessed as early apoptotic cells at 1.2 uM preincubated with Z-VAD-FMK for 1 hrs followed by compound addition and measured after 24 hrs by Annexin V-FITC/PI staining based flow cytometric analysis (reference value: 0.96 %); format: functional
[18] = tested on: HeLa; assay: Antitumor activity against human HeLa cells xenografted in female BALB/c mouse assessed as reduction in tumor weight at 8 mg/kg administered every four days and measured after 26 days relative to control; format: functional; design: scale not given: the % may be the effect or the level left; conditions: time 26 day
[19] = tested on: HeLa; assay: Induction of apoptosis in human HeLa cells assessed as early apoptotic cells at 0.6 uM preincubated with Z-VAD-FMK for 1 hrs followed by compound addition and measured after 24 hrs by Annexin V-FITC/PI staining based flow cytometric analysis (reference value: 0.96 %); format: functional
[20] = tested on: HeLa; assay: Effect on cleaved caspase 3 expression level in Bax deficient human HeLa cells at 0.6 to 1.2 uM incubated for 24 hrs by Western blot analysis; format: functional, cell-based; conditions: dose 0.6-1.2 µM
[21] = tested on: Ca-Ski; assay: Antiproliferative activity against ATG5 deficient human Ca Ski cells assessed as inhibition of cell viability incubated for 24 hrs by CCK8 assay; format: functional, cell-based
[22] = tested on: HeLa; assay: Effect on caspase 3 expression level in p53 deficient human HeLa cells at 0.6 to 1.2 uM incubated for 24 hrs by Western blot analysis; format: functional, cell-based; conditions: dose 0.6-1.2 µM
[23] = tested on: Ca-Ski; assay: Effect on cleaved PARP expression level in human Ca Ski cells at 0.25 to 1 uM incubated for 24 hrs by Western blot analysis; format: functional, cell-based; conditions: dose 0.25-1 µM
[24] = tested on: HeLa; assay: Induction of apoptosis in human HeLa cells assessed as early apoptotic cells at 1.2 uM incubated for 24 hrs by Annexin V-FITC/PI staining based flow cytometric analysis (reference value: 0.97 %); format: functional
[25] = tested on: HeLa; assay: Antiproliferative activity against Bax deficient human HeLa cells assessed as inhibition of cell viability incubated for 24 hrs by CCK8 assay; format: functional, cell-based
[26] = tested on: HeLa; assay: Induction of morphological changes in human HeLa cells assessed as increase in appearance of round cells at 0.6 to 2.4 uM by microphotographic analysis; format: functional, cell-based; conditions: dose 0.6-2.4 µM
[27] = tested on: HeLa; assay: Antitumor activity against human HeLa cells xenografted in female BALB/c mouse assessed as reduction in Ki67 expression in tumor at 4 to 8 mg/kg administered every four days and measured after 26 days by immunohistochemical analysis; format: functional, organism-based; conditions: dose 4-8 mg/kg, time 26.0 day
[28] = tested on: A549; assay: Antiproliferative activity against human A549 cells assessed as reduction in cell optical density incubated for 48 hrs by MTT assay; format: functional, cell-based; conditions: A549, 48 h
[29] = tested on: Ca-Ski; assay: Induction of apoptosis in human Ca Ski cells assessed as viable cells at 1 uM incubated for 24 hrs by Annexin V-FITC/PI staining based flow cytometric analysis (reference value: 86.8 %); format: functional; conditions: read-out: Activity
[30] = tested on: Ca-Ski; assay: Induction of morphological changes in human Ca Ski cells assessed as decrease in cell adherence to culture dish at 0.5 to 2 uM by microphotographic analysis; format: functional, cell-based; conditions: dose 0.5-2 µM
[31] = tested on: C-33-A; assay: Induction of morphological changes in human C-33-A cells assessed as decrease in cell adherence to culture dish at 0.3 to 1.2 uM by microphotographic analysis; format: functional, cell-based; conditions: dose 0.3-1.2 µM
[32] = tested on: HeLa; assay: Effect on Beclin1 protein level in human HeLa cells at 0.6 to 1.2 uM incubated for 24 hrs by Western blot analysis; format: functional, cell-based; conditions: dose 0.6-1.2 µM
[33] = tested on: Ca-Ski; assay: Effect on TRFC protein expression level in human Ca Ski cells at 0.5 uM incubated for 24 hrs by Western blot analysis; format: functional, cell-based
[34] = tested on: HeLa; assay: Induction of apoptosis in human HeLa cells assessed as viable cells at 0.6 uM preincubated with Z-VAD-FMK for 1 hrs followed by compound addition and measured after 24 hrs by Annexin V-FITC/PI staining based flow cytometric analysis (reference value: 95.8 %); format: functional; conditions: read-out: Activity
[35] = tested on: Ca-Ski; assay: Induction of apoptosis in human Ca Ski cells assessed as viable cells at 0.5 uM preincubated with Z-VAD-FMK for 1 hrs followed by compound addition and measured after 24 hrs by Annexin V-FITC/PI staining based flow cytometric analysis (reference value: 90.2 %); format: functional; conditions: read-out: Activity

Compound: COc1cccc(Nc2ccnc3cc(OCCCCCOc4ccc5c(Nc6cccc(OC)c6)ccnc5c4)ccc23)c1
- Activity [1]: Minimal_effect
- Activity [2]: Active
- inhibition [3]: Minimal_effect
- Activity [4]: inactive
- Activity [5]: Active
- Activity [6]: Active
- Activity [7]: 46.27%
- inhibition [8]: Active
- Activity [9]: Dose-dependent-effect
- IC50 [9]: 807 nM
- inhibition [10]: Minimal_effect
- IC50 [11]: 872 nM
- Activity [12]: Active
- Activity [13]: inactive
- Activity [14]: Moderate_effect
- Activity [15]: inactive
- Activity [16]: inactive
- Activity [17]: 1.22%
- Activity [18]: 81.76%
- Activity [19]: 1.31%
- Activity [20]: inactive
- IC50 [21]: 1580 nM
- Activity [22]: inactive
- Activity [23]: inactive
- Activity [24]: 1.25%
- IC50 [25]: 1320 nM
- Activity [26]: Active
- Activity [27]: Active
- IC50 [28]: 2750 nM
- viability at 1 µM [29]: 82%
- Activity [30]: Active
- Activity [31]: Active
- Activity [32]: inactive
- Activity [33]: inactive
- viability at 0.6 µM [34]: 94.9%
- viability at 0.5 µM [35]: 73.7%
